Reference: patent US20210130316A1, “MORPHINAN DERIVATIVES AND COMPOSITIONS COMPRISING THE SAME FOR TREATING AUTOIMMUNE, IN[…] INFECTION RELATED DISORDERS” (TAIWANJ PHARMACEUTICALS CO., LTD, priority 2017, published 2021)

Key:
[1] = biological target: T1, Toll-like receptor 4 (TLR4) (Homo sapiens, UniProt O00206+Q9Y6Y9); test: NF-κB-inducible SEAP reporter assay of LPS-stimulated TLR4 activity in TLR4-expressing HEK293 cells; assay type: cell-based; conditions: for TLR-4 antagonist activity in words (summary of Table 3): 20 μM; for inhibition at 20 µM: compound 20 μM, LPS 10 ng/ml, 16-24 hours incubation, TLR4-expressing HEK293 cells, read-out: TLR-4 inhibition (%) Average
T1 construct: expressed in transfected cells; host or cells: HEK293
T1 sequence (O00206 24-839, species assumed): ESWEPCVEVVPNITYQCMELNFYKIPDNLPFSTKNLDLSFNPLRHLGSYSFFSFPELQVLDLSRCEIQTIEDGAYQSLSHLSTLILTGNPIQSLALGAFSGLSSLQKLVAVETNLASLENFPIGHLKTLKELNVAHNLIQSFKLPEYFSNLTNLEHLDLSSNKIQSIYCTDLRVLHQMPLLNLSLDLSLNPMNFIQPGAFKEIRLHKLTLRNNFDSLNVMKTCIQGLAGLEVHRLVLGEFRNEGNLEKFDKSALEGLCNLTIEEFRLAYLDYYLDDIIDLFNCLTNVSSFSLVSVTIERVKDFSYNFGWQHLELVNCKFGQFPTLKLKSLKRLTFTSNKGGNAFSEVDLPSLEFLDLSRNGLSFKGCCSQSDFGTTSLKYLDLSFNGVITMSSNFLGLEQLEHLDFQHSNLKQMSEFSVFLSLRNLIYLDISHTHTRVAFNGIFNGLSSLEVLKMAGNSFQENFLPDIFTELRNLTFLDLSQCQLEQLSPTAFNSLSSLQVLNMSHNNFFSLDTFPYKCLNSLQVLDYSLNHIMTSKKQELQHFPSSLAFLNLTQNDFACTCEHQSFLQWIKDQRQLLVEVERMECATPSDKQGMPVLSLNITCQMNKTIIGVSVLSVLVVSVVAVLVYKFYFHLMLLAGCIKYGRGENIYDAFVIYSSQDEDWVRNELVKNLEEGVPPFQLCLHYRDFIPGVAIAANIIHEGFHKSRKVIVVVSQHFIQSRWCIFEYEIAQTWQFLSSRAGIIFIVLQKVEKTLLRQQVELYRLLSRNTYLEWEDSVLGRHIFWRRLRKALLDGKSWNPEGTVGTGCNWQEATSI
T1 sequence (Q9Y6Y9 17-160 limits assumed, species assumed): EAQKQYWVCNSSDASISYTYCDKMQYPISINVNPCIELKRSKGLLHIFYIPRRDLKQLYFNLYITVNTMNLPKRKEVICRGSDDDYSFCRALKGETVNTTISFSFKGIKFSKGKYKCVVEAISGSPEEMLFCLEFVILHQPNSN
Description: Stimulation of the Toll-like receptor 4 (TLR4) was determined by assessing activation of the transcription factor NF-κB in HEK293 cells that were engineered to express TLR4. Assessment of TLR4 stimulation was based on the use of an NF-κB-inducible secreted alkaline phosphatase (SEAP) reporter system in which the SEAP reporter was under the control of a promoter inducible by NF-κB. Thus, the degree of activation of TLR4 can be indirectly quantified spectrophotometrically by measuring the amount of the SEAP reporter that is produced.
The TLR4-expressing cells were plated in HEK-Blue Detection (Invivogen, San Diego, Calif.) medium in a 96-well plate (25,000-50,000 cells/well). The cells were stimulated with lipopolysaccharides (LPS) alone or in combination with the compound of example 1. Cell culture without LPS and the compound of example 1 was defined as baseline control. To test whether the compound of example 1 could block that activation of the TLR4, the cells were treated with the compound of example 1 (20 μM) and LPS (final conc. 10 ng/ml/well). After a16-24 hours incubation period at 37° C. in a CO2 incubator, The signals of individual samples in 96-well plates were detected at O.D.650 nm with a Molecular Devices SpectraMax i3 Imaging Cytometer. The TLR4 activity was expressed in percentage of LPS alone-stimulated cells minus baseline control.

HEK293 cells = test: Cell viability assay (MTT method); assay type: cell-based; conditions: compound 20 μM, percentage of viable LPS-stimulated cells
Description: HEK 293 cells (2.5-5.0×10^4 cells/well) were seeded in 96-well plate for overnight and treated with different compounds for 16-24 hours. Cell growth was determined by MTh-based colorimetric assays. Viability of the test cells treated with vehicle (0.5% DMSO) only was defined as 100% viable. Survival of cells after treatment with DETDs was calculated using the following formula:
Viable cell number (%)=OD570 (treated cell culture)/OD570 (vehicle control)×100.
The ell viability assay was performed by the MTT method. Cells were incubated with 45 μl of 5 mg/ml MTT for 1 hour at 37° C., and 150 μl of DMSO was added at the end of culture to dissolve the crystals. The signals of individual samples in 96-well plates were detected at O.D.570 nm with Molecular Device SpectraMax Imaging Cytometer. Cell viability was expressed in percentage of viable LPS-stimulated cells.

SMILES	TLR-4 antagonist activity in words (summary of Table 3) [1]	inhibition at 20 µM [1]	Cell viability (%) Average (HEK293 cells)
CC(C)Nc1ccc(N2CC[C@@]34CCCC[C@@H]3[C@@H]2Cc2ccc(O)cc24)cc1 [Compound 20]	strong antagonists of TLR-4	99.8%	89.9%
Nc1ccc(N2CC[C@@]34CCCC[C@@H]3[C@@H]2Cc2ccc(O)cc24)c(C(F)(F)F)c1 [Compound 23]	weak to negligible activity towards TLR-4	22.9%	96.2%
Nc1ccc(N2CC[C@@]34CCCC[C@@H]3[C@@H]2Cc2ccc(O)cc24)c(F)c1 [Compound 21]	weak to negligible activity towards TLR-4	13.8%	97.4%
O=[N+]([O-])c1ccc(N2CC[C@@]34CCCC[C@@H]3[C@@H]2Cc2ccc(O)cc24)cc1 [Compound 3]	weak to negligible activity towards TLR-4	0%	82.1%
Nc1ccc(N2CC[C@@]34CCCC[C@@H]3[C@@H]2Cc2ccc(O)cc24)nc1 [Compound 25]	weak to negligible activity towards TLR-4	13.3%	100.8%
CCOC(=O)Nc1ccc(N2CC[C@@]34CCCC[C@@H]3[C@@H]2Cc2ccc(OC)cc24)cc1 [Compound 7]	weak to negligible activity towards TLR-4	0%	79.3%
Nc1ccc(S(=O)(=O)N2CC[C@@]34CCCC[C@@H]3[C@@H]2Cc2ccc(O)cc24)cc1 [Compound 16]	moderate to mild inhibitory activity toward TLR-4	42.1%	75.5%
Nc1ccc(N2CC[C@@]34CCCC[C@@H]3[C@@H]2Cc2ccc(O)cc24)cc1N [Compound 18]	remarkable inhibitions on TLR-4	57.7%	143.0%
COc1ccc2c(c1)[C@]13CCCC[C@@H]1[C@H](C2)N(CC(O)CN1CCOCC1)CC3 (stereo partly drawn) [Compound 13]	weak to negligible activity towards TLR-4	2.8%	101.5%
Nc1ccc(N2CC[C@@]34CCCC[C@@H]3[C@@H]2Cc2ccc(O)cc24)cc1 [Compound 4]	strong antagonists of TLR-4	90.5%	92.2%
COc1ccc2c(c1)[C@]13CCCC[C@@H]1[C@H](C2)N(c1ccc(NC(=O)CCCc2ccccc2)cc1)CC3 [Compound 8]	weak to negligible activity towards TLR-4	6%	104.7%
Nc1cc(N2CC[C@@]34CCCC[C@@H]3[C@@H]2Cc2ccc(O)cc24)ccc1[N+](=O)[O-] [Compound 17]	remarkable inhibitions on TLR-4	53.1%	116.0%
CC(=O)Nc1ccc(S(=O)(=O)N2CC[C@@]34CCCC[C@@H]3[C@@H]2Cc2ccc(O)cc24)cc1 [Compound 15]	moderate to mild inhibitory activity toward TLR-4	45.1%	104.0%
Cc1cc(N2CC[C@@]34CCCC[C@@H]3[C@@H]2Cc2ccc(O)cc24)ccc1N [Compound 22]	remarkable inhibitions on TLR-4	64.2%	101.7%
COc1ccc2c(c1)[C@]13CCCC[C@@H]1[C@H](C2)N(S(=O)(=O)c1ccc(N)cc1)CC3 [Compound 10]	moderate to mild inhibitory activity toward TLR-4	30%	111.6%
COc1ccc2c(c1)[C@]13CCCC[C@@H]1[C@H](C2)N(CC(O)COc1ccccc1)CC3 (stereo partly drawn) [Compound 11]	remarkable inhibitions on TLR-4	54.5%	88.8%
COc1ccc2c(c1)[C@]13CCCC[C@@H]1[C@H](C2)N(CC(O)CSc1ccccc1)CC3 (stereo partly drawn) [Compound 12]	remarkable inhibitions on TLR-4	59.1%	81.3%
COc1ccc2c(c1)[C@]13CCCC[C@@H]1[C@H](C2)N(S(=O)(=O)c1ccc([N+](=O)[O-])cc1)CC3 [Compound 9]	moderate to mild inhibitory activity toward TLR-4	23.7%	104.1%
O=[N+]([O-])c1ccc(N2CC[C@@]34CCCC[C@@H]3[C@@H]2Cc2ccc(O)cc24)nc1 [Compound 24]	moderate to mild inhibitory activity toward TLR-4	43.5%	103.3%
COc1ccc2c(c1)[C@]13CCCC[C@@H]1[C@H](C2)N(c1ccc(N)cc1)CC3 [Compound 6]	moderate to mild inhibitory activity toward TLR-4	37.7%	83.1%
CC(C)N(c1ccc(N2CC[C@@]34CCCC[C@@H]3[C@@H]2Cc2ccc(O)cc24)cc1)C(C)C [Compound 19]	remarkable inhibitions on TLR-4	75.3%	99.2%
COc1ccc2c(c1)[C@]13CCCC[C@@H]1[C@H](C2)N(c1ccc([N+](=O)[O-])c(N)c1)CC3 [Compound 5]	weak to negligible activity towards TLR-4	13.2%	110.9%
